# Measurements from US8809328B2, “Imidazole derivative” (National University Corporation Shizuoka University, priority 2011, dated 2014).
# How the values were obtained:
# Format in all cases: in vivo
# [1] = system: rice (Nipponbare) (Oryza sativa L. cv. Nipponbare); test: Influence of AOH and 3-methyl-AOH on rice seedlings in test tube culture fluid (Example 12); conditions: 0.2 mM in culture fluid, 28° C., one week; for Extension of roots: FIG. 8
# Protocol: Sterilized seeds of rice (Nipponbare) (Oryza sativa L. cv. Nipponbare) were allowed to sprout at 28° C. in three days. The sprouted seeds (four seeds per test tube) were cultivated in a test tube, in which a control culture fluid, a culture fluid to which 0.2 mM of AOH was added, or a culture fluid to which 0.2 mM of 3-methyl-AOH was added and was placed, at 28° C. for a week. The control culture fluid comprises 0.5 mM of NH4NO3, 0.3 mM of Na2HPO4, 0.15 mM of K2SO4, 0.2 mM of MgCl2, 0.1 mM of CaCl2, 23 μM of Fe-ethylenediaminetetraacetic acid (Fe-EDTA), 25 μM of H3BO3, 4.5 μM of MnSO4, 0.15 μM of CuSO4, 0.35 μM of ZnSO4, and 0.05 μM of Na2MoO4. The culture fluid was replaced with new culture fluid every other day. After cultivation, the length of shoots and roots was measured. […] (In FIG. 8, “*” indicates P value <0.05, and “**” indicates P value <0.01. n=16.). In contrast, 3-methyl-AOH gave no influence on extension of the shoots.
# [2] = system: Zoysiagrass (Agrostis stolonifera); test: Zoysiagrass cultivated on agar medium added with AHX; conditions: agar medium with 1 mM AHX, 30 days, vs control section
# [3] = system: Rice (Oryza sativa); test: Rice cultivated in culture fluid added with AHX; conditions: culture fluid with 0.2 mM AHX, 14 days, vs control section
# [4] = system: rice (Nipponbare) (Oryza sativa L. cv. Nipponbare); test: Influence of AHX or AOH on rice seedlings in test tube culture fluid (Example 6); conditions: 50, 200 or 1000 μM in culture fluid, 28° C., one week, FIG. 4
# Protocol: Sterilized seeds of rice (Nipponbare) (Oryza sativa L. cv. Nipponbare) were allowed to sprout at 28° C. in three days. The sprouted seeds (four seeds per test tube) were cultivated in a test tube, in which a control culture fluid or a culture fluid to which AHX or AOH was added to different concentrations and was placed, at 28° C. for a week. AOH that was produced according to the method of Example 5 was used. The control culture fluid comprises 0.5 mM of NH4NO3, 0.3 mM of Na2HPO4, 0.15 mM of K2SO4, 0.2 mM of MgCl2, 0.1 mM of CaCl2, 23 μM of Fe-ethylenediaminetetraacetic acid (Fe-EDTA), 25 μM of H3BO3, 4.5 μM of MnSO4, 0.15 μM of CuSO4, 0.35 μM of ZnSO4, and 0.05 μM of Na2MoO4. As for the culture fluids containing AHX or AOH, AHX or AOH is added to the above described control culture fluids such that the final concentration becomes 50 μM, 200 μM or 1000 μM. The culture fluid was replaced with new culture fluid every other day. After cultivation, the length of shoots and roots was measured.
# [5] = system: rice (Nipponbare) (Oryza sativa L. cv. Nipponbare); test: Influence of AOH on soil cultivation of rice (pot cultivation)
# Protocol: Rice (Nipponbare) (Oryza sativa L. cv. Nipponbare) was sown on Apr. 29, 2011, and each of grown seedlings was transplanted to a pot (1/5000a pot) filled with soil which contains a fertilizer comprising N (1440 mg), P2O5 (12 mg), K2O (760 mg) and CaO (806 mg) on June 7th, and was soil-cultivated in a greenhouse (28° C.) under any one of seven types of cultivation conditions of the following (1) to (7) until September 24th. Supply of water was performed by providing two liter of tap water or tap water to which AOH was added every week (see below).
# (1) Tap water was provided during pot cultivation.
# (2) Tap water to which AOH was added such that the final concentration became 50 μM was provided for two weeks (from June 7th to June 20th) in the planting stage. Tap water was provided in the other period.
# (3) Tap water to which AOH was added such that the final concentration became 50 μM was provided for two weeks (from July 4th to July 17th) in the tillering stage. Tap water was provided in the other period.
# (4) Tap water added to which AOH was added such that the final concentration became 50 μM was provided for two weeks (from July 25th to August 7th) in the topdressing stage for panicle formation. Tap water was provided in the other period.
# (5) Tap water added to which AOH was added such that the final concentration became 50 μM was provided for two weeks (from August 15th to August 28th) in the topdressing stage for ripening. Tap water was provided in the other period. […]
# (7) Tap water to which AOH was added such that the final concentration became 50 μM was provided during pot cultivation.
# Brown rice and plant bodies soil-cultivated were dried at 30° C. for 15 days, and brown rice weight (both of weight per plant and weight per 100 brown rice grains), panicle length, culm length, number of panicles, number of tillers, and aerial part weight were measured.
# [6] = system: rice (Nipponbare) (Oryza sativa L. cv. Nipponbare); test: Influence of AOH on soil cultivation of rice (field cultivation)
# Protocol: Rice (Nipponbare) (Oryza sativa L. cv. Nipponbare) was used and cultivated in a field as follows. As cultivation conditions, five sections of (1) to (5) were set.
# Rice (Nipponbare) (Oryza sativa L. cv. Nipponbare) was sown in a nursery box on Apr. 29, 2011, and provided with a total of 15 liters of tap water or tap water to which AOH was added for two weeks from May 24th while raising seedling in the nursery box. On June 7th, each of grown seedlings was transplanted to the field. The planting density was set to the interrow space of 30 cm and the planting distance of 15 cm (three reproductions of 3×3.3 m per one section). As basal fertilizer, 50 L of tap water or tap water to which AOH was added per section was supplied on June 7th. The cultivation was continued, and as topdressing for panicle formation, 50 L of tap water or tap water to which AOH was added per section was supplied on July 25th. Plant bodies were harvested on October 12th.
# (1) Tap water was used as the culture fluid during seedling raising, the basal fertilizer, and the topdressing for panicle formation.
# (2) Tap water to which AOH was added such that the final concentration became 0.5 mM was provided as the culture fluid during seedling raising. Tap water was used as the basal fertilizer, and the topdressing for panicle formation.
# (3) Tap water to which AOH was added such that the final concentration became 1.0 mM was provided as the culture fluid during seedling raising. Tap water was used as the basal fertilizer and the topdressing for panicle formation.
# (4) Tap water to which AOH was added such that the final concentration became 0.5 mM was provided as the basal fertilizer. Tap water was used as the culture fluid during seedling raising and the topdressing for panicle formation.
# (5) Tap water to which AOH was added such that the final concentration became 0.5 mM was provided as the topdressing for panicle formation. Tap water was used as the culture fluid during seedling raising and the basal fertilizer.
# Brown rice was dried, and total brown rice weight, hull weight, non-sieved brown rice weight and sieved brown rice, per 10 plant bodies, and thousand kernel weight were measured.
# [7] = 50 μM AOH, topdressing stage for panicle formation
# [8] = 50 μM AOH, topdressing stage for ripening
# [9] = applying AOH all the time, vs control
# [10] = 0.5 mM AOH during seedling raising
# [11] = 0.5 mM AOH, topdressing at panicle formation
# [12] = 1.0 mM AOH during seedling raising
# [13] = per 10 plants, 0.5 mM AOH as basal fertilizer
# [14] = per 10 plants, 0.5 mM AOH during seedling raising
# [15] = per 10 plants, 0.5 mM AOH, topdressing at panicle formation
# [16] = per 10 plants, 1.0 mM AOH during seedling raising
smiles,measurement,setting,value
"Cn1nnc2[nH]c(=O)[nH]c2c1=O [3-methyl-AOH, 3-methyl-3H-imidazo[4,5-d][1,2,3]triazin-4,6(5H,7H)-dione]",Extension of shoots,[1],no influence
same,Extension of roots,[1],had extension activity for roots
"O=c1[nH]nnc2[nH]cnc12 [AHX, 7H-imidazo[4,5-d][1,2,3]triazin-4(3H)-one]",Extension of shoots,[2],clearly promoted
same,Extension of shoots,[3],clearly promoted
same,Extension of shoots and roots,[4],promoted extension of shoots and roots concentration-dependently
"O=c1[nH]c2nn[nH]c(=O)c2[nH]1 [AOH, 3H-imidazo[4,5-d][1,2,3]triazin-4,6(5H,7H)-dione]",Extension of shoots and roots,[4],promoted extension of shoots and roots concentration-dependently
same,Extension of roots,[1],had extension activity for roots
same,Aerial part,"[5]; 5 μM AOH, all the time",151 ± 6.19 g
same,Brown rice weight (g/100 grains),"[5]; 5 μM AOH, all the time",2.13 ± 0.09 g/100 grains
same,Brown rice weight (g/plant),"[5]; 5 μM AOH, all the time",59.3 ± 2.27 g/plant
same,Culm length,"[5]; 5 μM AOH, all the time",89.7 ± 6.40 cm
same,Increasing rate of aerial part relative to control,"[5]; 5 μM AOH, all the time",30%
same,Increasing rate of brown rice weight per plant relative to control,"[5]; 5 μM AOH, all the time",42%
same,Increasing rate of number of panicles relative to control,"[5]; 5 μM AOH, all the time",24%
same,Number of tillers,"[5]; 5 μM AOH, all the time",37.9 ± 3.71
same,Panicle length,"[5]; 5 μM AOH, all the time",24.5 ± 2.24 cm
same,number of panicles,"[5]; 5 μM AOH, all the time",32.8 ± 2.48
same,Aerial part,"[5]; 50 μM AOH, all the time",147 ± 9.63 g
same,Brown rice weight (g/100 grains),"[5]; 50 μM AOH, all the time",2.15 ± 0.16 g/100 grains
same,Brown rice weight (g/plant),"[5]; 50 μM AOH, all the time",58.2 ± 3.76 g/plant
same,Culm length,"[5]; 50 μM AOH, all the time",92.3 ± 5.64 cm
same,Increasing rate of aerial part relative to control,"[5]; 50 μM AOH, all the time",27%
same,Increasing rate of brown rice weight per plant relative to control,"[5]; 50 μM AOH, all the time",40%
same,Increasing rate of number of panicles relative to control,"[5]; 50 μM AOH, all the time",23%
same,Number of tillers,"[5]; 50 μM AOH, all the time",35.7 ± 4.15
same,Panicle length,"[5]; 50 μM AOH, all the time",24.4 ± 1.96 cm
same,number of panicles,"[5]; 50 μM AOH, all the time",32.7 ± 4.03
same,Aerial part,"[5]; 50 μM AOH, planting stage",125 ± 21.2 g
same,Brown rice weight (g/100 grains),"[5]; 50 μM AOH, planting stage",2.11 ± 0.07 g/100 grains
same,Brown rice weight (g/plant),"[5]; 50 μM AOH, planting stage",46.6 ± 9.43 g/plant
same,Culm length,"[5]; 50 μM AOH, planting stage",97.1 ± 12.1 cm
same,Increasing rate of brown rice weight per plant relative to control,"[5]; 50 μM AOH, planting stage",12%
same,Number of tillers,"[5]; 50 μM AOH, planting stage",34.6 ± 2.70
same,Panicle length,"[5]; 50 μM AOH, planting stage",23.5 ± 1.61 cm
same,number of panicles,"[5]; 50 μM AOH, planting stage",27.8 ± 4.26
same,Aerial part,"[5]; 50 μM AOH, tillering stage",112 ± 30.0 g
same,Brown rice weight (g/100 grains),"[5]; 50 μM AOH, tillering stage",2.12 ± 0.12 g/100 grains
same,Brown rice weight (g/plant),"[5]; 50 μM AOH, tillering stage",42.3 ± 12.2 g/plant
same,Culm length,"[5]; 50 μM AOH, tillering stage",94.5 ± 4.63 cm
same,Number of tillers,"[5]; 50 μM AOH, tillering stage",30.9 ± 3.67
same,Panicle length,"[5]; 50 μM AOH, tillering stage",26.2 ± 1.03 cm
same,number of panicles,"[5]; 50 μM AOH, tillering stage",23.0 ± 5.44
same,Aerial part,[5]; [7],134 ± 16.5 g
same,Brown rice weight (g/100 grains),[5]; [7],2.12 ± 0.07 g/100 grains
same,Brown rice weight (g/plant),[5]; [7],53.7 ± 3.59 g/plant
same,Culm length,[5]; [7],90.2 ± 6.15 cm
same,Increasing rate of brown rice weight per plant relative to control,[5]; [7],29%
same,Number of tillers,[5]; [7],31.6 ± 3.60
same,Panicle length,[5]; [7],24.5 ± 1.61 cm
same,number of panicles,[5]; [7],30.5 ± 4.50
same,Aerial part,[5]; [8],131 ± 13.3 g
same,Brown rice weight (g/100 grains),[5]; [8],2.18 ± 0.08 g/100 grains
same,Brown rice weight (g/plant),[5]; [8],53.2 ± 2.61 g/plant
same,Culm length,[5]; [8],92.8 ± 3.98 cm
same,Increasing rate of brown rice weight per plant relative to control,[5]; [8],28%
same,Number of tillers,[5]; [8],31.4 ± 3.91
same,Panicle length,[5]; [8],24.0 ± 2.07 cm
same,number of panicles,[5]; [8],28.8 ± 4.67
same,aerial part weight,[5]; [9],increased more than the control
same,number of panicles,[5]; [9],increased more than the control
same,brown rice weight per plant,"[5]; applying AOH in the topdressing stage for panicle formation or later, vs control",increased more than the control
same,Increasing rate of sieved brown rice relative to control,[6]; 0.5 mM AOH as basal fertilizer,10.5%
same,Thousand kernel weight,[6]; 0.5 mM AOH as basal fertilizer,23.5 ± 0.6 g
same,Increasing rate of sieved brown rice relative to control,[6]; [10],8.9%
same,Thousand kernel weight,[6]; [10],23.0 ± 0.5 g
same,Increasing rate of sieved brown rice relative to control,[6]; [11],7.2%
same,Thousand kernel weight,[6]; [11],23.4 ± 0.5 g
same,Increasing rate of sieved brown rice relative to control,[6]; [12],10.2%
same,Thousand kernel weight,[6]; [12],23.5 ± 0.3 g
same,Hull weight,"[6]; applying AOH, vs control",increased more than the control
same,Sieved brown rice,"[6]; applying AOH, vs control",increased more than the control
same,non-sieved brown rice weight,"[6]; applying AOH, vs control",increased more than the control
same,total brown rice weight,"[6]; applying AOH, vs control",increased more than the control
same,Hull weight,[6]; [13],288 ± 23.9 g
same,Non-sieved brown rice weight,[6]; [13],230 ± 19.7 g
same,Sieved brown rice,[6]; [13],222 ± 19.8 g
same,Total weight,[6]; [13],644 ± 49.5 g
same,Hull weight,[6]; [14],283 ± 35.0 g
same,Non-sieved brown rice weight,[6]; [14],227 ± 28.9 g
same,Sieved brown rice,[6]; [14],218 ± 29.0 g
same,Total weight,[6]; [14],630 ± 71.4 g
same,Hull weight,[6]; [15],279 ± 24.9 g
same,Non-sieved brown rice weight,[6]; [15],224 ± 20.9 g
same,Sieved brown rice,[6]; [15],215 ± 20.7 g
same,Total weight,[6]; [15],643 ± 54.1 g
same,Hull weight,[6]; [16],284 ± 24.4 g
same,Non-sieved brown rice weight,[6]; [16],228 ± 20.1 g
same,Sieved brown rice,[6]; [16],221 ± 19.5 g
same,Total weight,[6]; [16],638 ± 59.6 g
